For assay [1], the system named is mouse calvarial cells. The assay is described as follows: Alizarin red staining (calcium deposition) of mouse calvarial cell monolayers. To be noted: 2.5 mM amino acid with 2.5 mM CaCl2, 2 week period, compared to 2.5 mM CaCl2 alone, FIG. 1 and 2. It counts as cell-based. As to the method:
(§1) Osteoblastic cells were isolated from mouse calvarial tissue dissected from the heads of 2-3 day old freshly slaughtered mice pups using sequential enzymatic digestion. Cells were maintained in DMEM+10% Foetal Bovine Serum (FBS) at 37° C./5% CO2 in order to expand the cells before experimental use. Human dermal fibroblasts (HDFs) were used in experiments as an additional negative control.
Cells were seeded into 24 well plates at a concentration of 5×10^4 cells/well in αMEM+10% FBS (n=6). Experiments were set up to examine the amount of mineralisation at two different concentrations of calcium chloride (CaCl2) (1.8 mM and 2.5 mM) with and without L-amino acids (L-phenylalanine and L-tryptophan at 2.5 mM). Cells were cultured at 37° C./5% CO2 with media changes three times a week. After 2 weeks and 3 weeks, the monolayers were stained to show the extent of mineralisation using Alizarin red (calcium deposition) and after 4 weeks with Von Kossa (mineralised matrix). Alizarin red stained monolayers were destained and the stain quantified spectophotometrically, whilst the Von Kossa staining was quantified using image analysis.

Assay [2] has as its system mouse calvarial cells. Put plainly: Von Kossa staining (mineralised matrix) of mouse calvarial cell monolayers. It counts as cell-based. As to conditions: compared to 2.5 mM CaCl2 alone. As to the method:
as §1
Cells were seeded into 24 well plates at a concentration of 5×10^4 cells/well in αMEM+10% FBS (n=6). Experiments were set up to examine the amount of mineralisation at two different concentrations of calcium chloride (CaCl2) (1.8 mM and 2.5 mM) with and without L-amino acids (L-phenylalanine and L-tryptophan at 2.5 mM). Cells were cultured at 37° C./5% CO2 with media changes three times a week. […] Alizarin red stained monolayers were destained and the stain quantified spectophotometrically, whilst the Von Kossa staining was quantified using image analysis.

The structures appear in SMILES notation.

Consider `N[C@@H](Cc1ccccc1)C(=O)O` [L-Phe, L-phenylalanine], for which the calcium deposition entry in the assay with mouse calvarial cells [1] is listed as “significantly increases”. Also, the “amount of mineralised matrix” value with mouse calvarial cells [2] (2.5 mM L-Phe with 2.5 mM CaCl2, 2 week period, Von Kossa image analysis, FIG. 4) is on record as “significantly increases”; in the assay with mouse calvarial cells [2] (2.5 mM L-Phe with 2.5 mM CaCl2, 4 week period, Von Kossa staining, FIG. 3), “significantly increases”.
For `N[C@@H](Cc1c[nH]c2ccccc12)C(=O)O` [L-Trp, L-tryptophan], the calcium deposition entry in the assay with mouse calvarial cells [1] is “significantly increases”.
